Reference: publication PMC12454493, “Insight on novel sulfamoylphenyl pyrazole derivatives as anticancer carbonic anhydrase inhibitors” (Molecular Diversity, 2024)
Values joined by “and” are separate entries in the source; they are usually repeats but may differ in a detail not shown here. Equal entries are not always repeated.

Tests used:
[1] = target: hCA XII (Homo sapiens, UniProt O43570); test: CA inhibitory activity, spectrophotometric p-NPA assay; assay type: biochemical; conditions: p-NPA substrate, pH 7.5, 25 °C, triplicate; read-out: IC50 (µM) ± SD hCA XII
[2] = test system: M14; test: NCI-60 one-dose SRB screen (Melanoma); assay type: cell-based; conditions: Homo sapiens, single dose 10 µM, 48 h, read-out: Growth inhibition percent (GI %)
[3] = test system: MDA-MB-435; test: NCI-60 one-dose SRB screen (Melanoma); assay type: cell-based; conditions: Homo sapiens, single dose 10 µM, 48 h, read-out: Growth inhibition percent (GI %)
[4] = test system: UACC-62; test: NCI-60 one-dose SRB screen (Melanoma); assay type: cell-based; conditions: Homo sapiens, single dose 10 µM, 48 h, read-out: Growth inhibition percent (GI %)
[5] = test system: SK-MEL-28; test: NCI-60 one-dose SRB screen (Melanoma); assay type: cell-based; conditions: Homo sapiens, single dose 10 µM, 48 h, read-out: Growth inhibition percent (GI %)
[6] = test system: UACC-257; test: NCI-60 one-dose SRB screen (Melanoma); assay type: cell-based; conditions: Homo sapiens, single dose 10 µM, 48 h, read-out: Growth inhibition percent (GI %)
[7] = test system: SK-MEL-5; test: NCI-60 one-dose SRB screen (Melanoma); assay type: cell-based; conditions: Homo sapiens, single dose 10 µM, 48 h, read-out: Growth inhibition percent (GI %)
[8] = test system: LOX IMVI; test: NCI-60 one-dose SRB screen (Melanoma); assay type: cell-based; conditions: Homo sapiens, single dose 10 µM, 48 h, read-out: Growth inhibition percent (GI %)
[9] = test system: SK-MEL-2; test: NCI-60 one-dose SRB screen (Melanoma); assay type: cell-based; conditions: Homo sapiens, single dose 10 µM, 48 h, read-out: Growth inhibition percent (GI %)
[10] = test system: MALME-3M; test: NCI-60 one-dose SRB screen (Melanoma); assay type: cell-based; conditions: Homo sapiens, single dose 10 µM, 48 h, read-out: Growth inhibition percent (GI %)
[11] = test system: MOLT-4; test: NCI-60 one-dose SRB screen (Leukemia); assay type: cell-based; conditions: Homo sapiens, single dose 10 µM, 48 h, read-out: Growth inhibition percent (GI %)
[12] = test system: RPMI-8226; test: NCI-60 one-dose SRB screen (Leukemia); assay type: cell-based; conditions: Homo sapiens, single dose 10 µM, 48 h, read-out: Growth inhibition percent (GI %)
[13] = test system: SR; test: NCI-60 one-dose SRB screen (Leukemia); assay type: cell-based; conditions: Homo sapiens, single dose 10 µM, 48 h, read-out: Growth inhibition percent (GI %)
[14] = test system: K-562; test: NCI-60 one-dose SRB screen (Leukemia); assay type: cell-based; conditions: Homo sapiens, K562, single dose 10 µM, 48 h, read-out: Growth inhibition percent (GI %)
[15] = test system: CCRF-CEM; test: NCI-60 one-dose SRB screen (Leukemia); assay type: cell-based; conditions: Homo sapiens, single dose 10 µM, 48 h, read-out: Growth inhibition percent (GI %)
[16] = test system: HL-60(TB); test: NCI-60 one-dose SRB screen (Leukemia); assay type: cell-based; conditions: Homo sapiens, single dose 10 µM, 48 h, read-out: Growth inhibition percent (GI %)
[17] = test system: SF-539; test: NCI-60 one-dose SRB screen (CNS Cancer); assay type: cell-based; conditions: Homo sapiens, single dose 10 µM, 48 h, read-out: Growth inhibition percent (GI %)
[18] = test system: SNB-19; test: NCI-60 one-dose SRB screen (CNS Cancer); assay type: cell-based; conditions: Homo sapiens, single dose 10 µM, 48 h, read-out: Growth inhibition percent (GI %)
[19] = test system: U251; test: NCI-60 one-dose SRB screen (CNS Cancer); assay type: cell-based; conditions: Homo sapiens, U-251, single dose 10 µM, 48 h, read-out: Growth inhibition percent (GI %)
[20] = test system: SF-295; test: NCI-60 one-dose SRB screen (CNS Cancer); assay type: cell-based; conditions: Homo sapiens, single dose 10 µM, 48 h, read-out: Growth inhibition percent (GI %)
[21] = test system: SNB-75; test: NCI-60 one-dose SRB screen (CNS Cancer); assay type: cell-based; conditions: Homo sapiens, single dose 10 µM, 48 h, read-out: Growth inhibition percent (GI %)
[22] = test system: SF-268; test: NCI-60 one-dose SRB screen (CNS Cancer); assay type: cell-based; conditions: Homo sapiens, single dose 10 µM, 48 h, read-out: Growth inhibition percent (GI %)
[23] = target: hCA IX (Homo sapiens, UniProt Q16790); test: CA inhibitory activity, spectrophotometric p-NPA assay; assay type: biochemical; conditions: p-NPA substrate, pH 7.5, 25 °C, triplicate; read-out: IC50 (µM) ± SD hCA IX
[24] = test system: NCI-H522; test: NCI-60 one-dose SRB screen (Non-Small Cell Lung Cancer); assay type: cell-based; conditions: Homo sapiens, single dose 10 µM, 48 h, read-out: Growth inhibition percent (GI %)
[25] = test system: NCI-H23; test: as above; assay type: cell-based; conditions: Homo sapiens, single dose 10 µM, 48 h, read-out: Growth inhibition percent (GI %)
[26] = test system: A549/ATCC; test: as above; assay type: cell-based; conditions: Homo sapiens, single dose 10 µM, 48 h, read-out: Growth inhibition percent (GI %)
[27] = test system: NCI-H460; test: as above; assay type: cell-based; conditions: Homo sapiens, single dose 10 µM, 48 h, read-out: Growth inhibition percent (GI %)
[28] = test system: EKVX; test: as above; assay type: cell-based; conditions: Homo sapiens, single dose 10 µM, 48 h, read-out: Growth inhibition percent (GI %)
[29] = test system: NCI-H226; test: as above; assay type: cell-based; conditions: Homo sapiens, single dose 10 µM, 48 h, read-out: Growth inhibition percent (GI %)
[30] = test system: NCI-H322M; test: as above; assay type: cell-based; conditions: Homo sapiens, single dose 10 µM, 48 h, read-out: Growth inhibition percent (GI %)
[31] = test system: HOP-62; test: as above; assay type: cell-based; conditions: Homo sapiens, single dose 10 µM, 48 h, read-out: Growth inhibition percent (GI %)
[32] = test system: COLO 205; test: NCI-60 one-dose SRB screen (Colon Cancer); assay type: cell-based; conditions: Homo sapiens, single dose 10 µM, 48 h, read-out: Growth inhibition percent (GI %)
[33] = test system: HCT-15; test: NCI-60 one-dose SRB screen (Colon Cancer); assay type: cell-based; conditions: Homo sapiens, single dose 10 µM, 48 h, read-out: Growth inhibition percent (GI %)
[34] = test system: HCC-2998; test: NCI-60 one-dose SRB screen (Colon Cancer); assay type: cell-based; conditions: Homo sapiens, single dose 10 µM, 48 h, read-out: Growth inhibition percent (GI %)
[35] = test system: KM12; test: NCI-60 one-dose SRB screen (Colon Cancer); assay type: cell-based; conditions: Homo sapiens, single dose 10 µM, 48 h, read-out: Growth inhibition percent (GI %)
[36] = test system: HT29; test: NCI-60 one-dose SRB screen (Colon Cancer); assay type: cell-based; conditions: Homo sapiens, HT-29, single dose 10 µM, 48 h, read-out: Growth inhibition percent (GI %)
[37] = test system: HCT-116; test: NCI-60 one-dose SRB screen (Colon Cancer); assay type: cell-based; conditions: Homo sapiens, single dose 10 µM, 48 h, read-out: Growth inhibition percent (GI %)
[38] = test system: SW-620; test: NCI-60 one-dose SRB screen (Colon Cancer); assay type: cell-based; conditions: Homo sapiens, single dose 10 µM, 48 h, read-out: Growth inhibition percent (GI %)
[39] = test system: IGROV1; test: NCI-60 one-dose SRB screen (Ovarian cancer); assay type: cell-based; conditions: Homo sapiens, IGROV-1, single dose 10 µM, 48 h, read-out: Growth inhibition percent (GI %)
[40] = test system: OVCAR-3; test: NCI-60 one-dose SRB screen (Ovarian cancer); assay type: cell-based; conditions: Homo sapiens, single dose 10 µM, 48 h, read-out: Growth inhibition percent (GI %)
[41] = test system: OVCAR-5; test: NCI-60 one-dose SRB screen (Ovarian cancer); assay type: cell-based; conditions: Homo sapiens, single dose 10 µM, 48 h, read-out: Growth inhibition percent (GI %)
[42] = test system: NCI/ADR-RES; test: NCI-60 one-dose SRB screen (Ovarian cancer); assay type: cell-based; conditions: Homo sapiens, single dose 10 µM, 48 h, read-out: Growth inhibition percent (GI %)
[43] = test system: OVCAR-4; test: NCI-60 one-dose SRB screen (Ovarian cancer); assay type: cell-based; conditions: Homo sapiens, single dose 10 µM, 48 h, read-out: Growth inhibition percent (GI %)
[44] = test system: OVCAR-8; test: NCI-60 one-dose SRB screen (Ovarian cancer); assay type: cell-based; conditions: Homo sapiens, single dose 10 µM, 48 h, read-out: Growth inhibition percent (GI %)
[45] = test system: SK-OV-3; test: NCI-60 one-dose SRB screen (Ovarian cancer); assay type: cell-based; conditions: Homo sapiens, single dose 10 µM, 48 h, read-out: Growth inhibition percent (GI %)

Sequence of hCA XII (O43570 25-354): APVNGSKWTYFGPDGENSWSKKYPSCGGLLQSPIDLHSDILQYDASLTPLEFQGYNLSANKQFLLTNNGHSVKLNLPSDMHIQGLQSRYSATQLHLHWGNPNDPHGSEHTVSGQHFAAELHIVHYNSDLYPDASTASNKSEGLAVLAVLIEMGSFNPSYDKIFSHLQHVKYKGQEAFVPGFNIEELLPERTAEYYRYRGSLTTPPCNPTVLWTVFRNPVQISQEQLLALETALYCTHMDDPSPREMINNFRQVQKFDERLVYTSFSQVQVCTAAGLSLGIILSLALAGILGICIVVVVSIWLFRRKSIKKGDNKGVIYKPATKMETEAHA

## CCOC(=O)c1ccc(NC(=O)COC(=O)c2cn(-c3ccc(S(N)(=O)=O)cc3)nc2-c2ccc(OC)cc2)cc1 [Compound 5c, 2-[(4-(Ethoxycarbonyl)phenyl)amino]-2-oxoethyl 3-(4-methoxyphenyl)-1-(4-sulfamoylphenyl)-1H-pyrazole-4-carboxylate]
[1]
  IC50: 0.27 µM and 0.272 µM
other
  melting point: 121 to 124 °C
[2]
  inhibition at 10 µM: 40.3%
[3]
  inhibition at 10 µM: 27.3%
[4]
  inhibition at 10 µM: 44.5%
[5]
  inhibition at 10 µM: 24.6%
[6]
  inhibition at 10 µM: 25.4%
[7]
  inhibition at 10 µM: 34.9%
[8]
  inhibition at 10 µM: 21.3%
[9]
  inhibition at 10 µM: 23.1%
[10]
  inhibition at 10 µM: 21%
[11]
  inhibition at 10 µM: 65.9%
[12]
  inhibition at 10 µM: 58.6%
[13]
  inhibition at 10 µM: 64.6%
[14]
  inhibition at 10 µM: 61.7%
[15]
  inhibition at 10 µM: 62.6%
[16]
  inhibition at 10 µM: 48.4%
[17]
  inhibition at 10 µM: 38.7%
[18]
  inhibition at 10 µM: 30.7%
[19]
  inhibition at 10 µM: 34.3%
[20]
  inhibition at 10 µM: 32.7%
[21]
  inhibition at 10 µM: 49.3%
[22]
  inhibition at 10 µM: 28.5%
[23]
  IC50: 0.22 ± 0.01 µM
[24]
  inhibition at 10 µM: 31%
[25]
  inhibition at 10 µM: 17.5%
[26]
  inhibition at 10 µM: 39.4%
[27]
  inhibition at 10 µM: 28.8%
[28]
  inhibition at 10 µM: 42.2%
[29]
  inhibition at 10 µM: 26.7%
[30]
  inhibition at 10 µM: 9.97%
[31]
  inhibition at 10 µM: 12%
[32]
  inhibition at 10 µM: 25.1%
[33]
  inhibition at 10 µM: 48.5%
[34]
  inhibition at 10 µM: < 5%
[35]
  inhibition at 10 µM: 26.2%
[36]
  inhibition at 10 µM: 17.3%
[37]
  inhibition at 10 µM: 35.2%
[38]
  inhibition at 10 µM: 7.9%
[39]
  inhibition at 10 µM: < 5%
[40]
  inhibition at 10 µM: 23.2%
[41]
  inhibition at 10 µM: 13.7%
[42]
  inhibition at 10 µM: < 5%
[43]
  inhibition at 10 µM: 42.5%
[44]
  inhibition at 10 µM: 5.25%
[45]
  inhibition at 10 µM: 11.6%

## Cc1ccc(-c2nn(-c3ccc(S(N)(=O)=O)cc3)cc2C(=O)NNC(N)=S)cc1 [Compound 9b, 2-[1-(4-Sulfamoylphenyl)-3-(p-tolyl)-1H-pyrazole-4-carbonyl] hydrazine-1-carbothioamide]
[1]
  IC50: 0.33 µM and 0.335 µM
other
  melting point: 178 to 180 °C
[2]
  inhibition at 10 µM: < 5%
[3]
  inhibition at 10 µM: < 5%
[4]
  inhibition at 10 µM: 5.9%
[5]
  inhibition at 10 µM: < 5%
[6]
  inhibition at 10 µM: < 5%
[7]
  inhibition at 10 µM: < 5%
[8]
  inhibition at 10 µM: < 5%
[9]
  inhibition at 10 µM: < 5%
[10]
  inhibition at 10 µM: < 5%
[11]
  inhibition at 10 µM: < 5%
[12]
  inhibition at 10 µM: < 5%
[13]
  inhibition at 10 µM: < 5%
[14]
  inhibition at 10 µM: < 5%
[15]
  inhibition at 10 µM: 19.6%
[16]
  inhibition at 10 µM: < 5%
[17]
  inhibition at 10 µM: 5.95%
[18]
  inhibition at 10 µM: < 5%
[19]
  inhibition at 10 µM: < 5%
[20]
  inhibition at 10 µM: < 5%
[21]
  inhibition at 10 µM: 6.3%
[22]
  inhibition at 10 µM: < 5%
[23]
  IC50: 0.33 µM and 0.339 µM
[24]
  inhibition at 10 µM: < 5%
[25]
  inhibition at 10 µM: < 5%
[26]
  inhibition at 10 µM: < 5%
[27]
  inhibition at 10 µM: < 5%
[28]
  inhibition at 10 µM: < 5%
[29]
  inhibition at 10 µM: < 5%
[30]
  inhibition at 10 µM: < 5%
[31]
  inhibition at 10 µM: < 5%
[32]
  inhibition at 10 µM: < 5%
[33]
  inhibition at 10 µM: < 5%
[34]
  inhibition at 10 µM: < 5%
[35]
  inhibition at 10 µM: < 5%
[36]
  inhibition at 10 µM: < 5%
[37]
  inhibition at 10 µM: < 5%
[38]
  inhibition at 10 µM: < 5%
[39]
  inhibition at 10 µM: < 5%
[40]
  inhibition at 10 µM: < 5%
[41]
  inhibition at 10 µM: < 5%
[42]
  inhibition at 10 µM: < 5%
[43]
  inhibition at 10 µM: < 5%
[44]
  inhibition at 10 µM: < 5%
[45]
  inhibition at 10 µM: < 5%
